Consider 9 compounds from ChEMBL document CHEMBL5154944, “Discovery of Aryloxyphenyl-Heptapeptide Hybrids as Potent and Selective Matrix Metalloproteinase-2 Inhibitors for the Treatment of Idiopathic Pulmonary Fibrosis” (J Med Chem, 2022).

Non-standard residues stand in square brackets, D forms with d. Residues, ends and D or L forms follow the SMILES beside them. *: point of attachment. Benzoyl(4-OPh(4-CONH2)) = NC(=O)c1ccc(Oc2ccc(C(=O)*)cc2)cc1; Benzenesulfonyl(4-OPh) = O=S(=O)(c1ccc(Oc2ccccc2)cc1)*; Benzenesulfonyl(4-Ph) = O=S(=O)(c1ccc(-c2ccccc2)cc1)*; NMeI = CC[C@H](C)[C@H](NC)C(=O)O; NMeE = CN[C@@H](CCC(=O)O)C(=O)O; NMeL = CN[C@@H](CC(C)C)C(=O)O; β3hP = O=C(O)C[C@@H]1CCCN1; Dab = NCC[C@H](N)C(=O)O; Ava = NCCCCC(=O)O; GABA = NCCCC(=O)O; βAla = NCCC(=O)O

The target in one data set is Stromelysin-1 (Homo sapiens, UniProt P08254). In words: Inhibition of recombinant human MMP3 using MOCAc-Lys-Pro-Leu-Gly-Leu-A2pr(Dnp)-[…] as substrate preincubated for 15 mins followed by substrate addition by fluroscence based assay.
Data set [1] is filed under the species Homo sapiens. In words: Selectivity ratio of IC50 for recombinant human MMP3 to IC50 for recombinant human MMP2.
Data set [2] can be described thus: physchem. To be noted: buffer, pH 7.4.
The target in data set [3] is MMP-2/MMP-9 (Homo sapiens) (UniProt P08253+P14780). The data set can be described thus: Selectivity ratio of IC50 for recombinant human MMP9 to IC50 for recombinant human MMP2. It is filed as protein assay.
A short description of data set [4]: Clearance in fasted Sprague-Dawley rat at 0.4 mg/kg, iv by LC-MS/MS analysis. Type of data set: ADME, organism-based. To be noted: in vivo.
Data set [5] addresses MMP-2/MMP-14 (Homo sapiens) (UniProt P50281+P08253). In words: Selectivity ratio of IC50 for recombinant human MMP14 to IC50 for recombinant human MMP2. Type of data set: protein assay.
In data set [6] the target is MMP-1/MMP-2 (Homo sapiens) (UniProt P08253+P03956). The data set can be described thus: Selectivity ratio of IC50 for recombinant human MMP1 to IC50 for recombinant human MMP2. It is filed as protein assay.
Data set [7] is described as follows: Volume of distribution at steady state in fasted Sprague-Dawley rat at 0.4 mg/kg, iv by LC-MS/MS analysis. It is filed as ADME, organism-based. The settings on record: in vivo, read-out: Vdss.
The species named for data set [8] is Homo sapiens. In words: Selectivity ratio of IC50 for recombinant human MMP12 to IC50 for recombinant human MMP2.
For data set [9], the species on record is Homo sapiens. In words: Selectivity ratio of IC50 for recombinant human MMP7 to IC50 for recombinant human MMP2.
Data set [10] addresses Matrix metalloproteinase-9 (Homo sapiens, UniProt P14780).
Data set [11] is filed under the species Homo sapiens. The data set can be described thus: Selectivity ratio of IC50 for recombinant human MMP8 to IC50 for recombinant human MMP2.
Another data set has as its target T1, Interstitial collagenase (Homo sapiens, UniProt P03956).
T1 sequence (P03956 whole entry): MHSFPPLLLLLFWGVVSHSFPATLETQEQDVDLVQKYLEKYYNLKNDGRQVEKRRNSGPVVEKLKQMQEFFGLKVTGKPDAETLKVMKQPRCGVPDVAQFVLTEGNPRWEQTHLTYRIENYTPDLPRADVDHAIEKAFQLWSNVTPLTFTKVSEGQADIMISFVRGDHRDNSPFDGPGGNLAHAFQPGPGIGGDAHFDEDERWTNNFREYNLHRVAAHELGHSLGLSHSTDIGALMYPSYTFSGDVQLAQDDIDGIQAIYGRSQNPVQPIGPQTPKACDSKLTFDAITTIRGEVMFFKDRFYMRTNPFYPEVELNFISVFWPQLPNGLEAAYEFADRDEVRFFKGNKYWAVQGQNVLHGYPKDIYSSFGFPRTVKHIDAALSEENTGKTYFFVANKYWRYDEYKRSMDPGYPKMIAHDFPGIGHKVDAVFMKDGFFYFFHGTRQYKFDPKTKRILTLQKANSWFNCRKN
In words: Inhibition of recombinant human MMP1 using MOCAc-Lys-Pro-Leu-Gly-Leu-A2pr(Dnp)-Ala-Arg-NH2 as substrate preincubated for 15 mins followed by substrate addition by fluroscence based assay.

The target in a further data set is Neutrophil collagenase (Homo sapiens, UniProt P22894).
In the next data set the target is T2, Matrilysin (Homo sapiens, UniProt P09237).
T2 sequence (P09237 whole entry): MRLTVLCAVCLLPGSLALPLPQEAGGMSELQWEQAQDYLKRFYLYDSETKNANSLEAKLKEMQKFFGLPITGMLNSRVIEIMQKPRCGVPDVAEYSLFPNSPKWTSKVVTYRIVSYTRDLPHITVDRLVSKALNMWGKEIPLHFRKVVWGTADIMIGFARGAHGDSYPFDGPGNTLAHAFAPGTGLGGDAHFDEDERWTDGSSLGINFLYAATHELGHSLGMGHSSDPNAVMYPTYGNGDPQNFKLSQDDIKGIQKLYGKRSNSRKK

In a further data set the target is Collagenase 3 (Homo sapiens, UniProt P45452).
Data set [12] can be described thus: Half life in fasted Sprague-Dawley rat at 0.4 mg/kg, iv by LC-MS/MS analysis. To be noted: in vivo. It is filed as ADME, organism-based.
The target in data set [13] is 72 kDa type IV collagenase (Homo sapiens, UniProt P08253).
Data set [14] has as its target Matrix metalloproteinase-14 (Homo sapiens, UniProt P50281). In words: Inhibition of recombinant human MMP14 using MOCAc-Lys-Pro-Leu-Gly-Leu-A2pr(Dnp)-Ala-Arg-NH2 as substrate preincubated for 15 mins followed by substrate addition by fluroscence based assay.
Data set [15] in a line: Metabolic stability in rat hepatocytes assessed as parent compound remaining incubated for 1 hr by LC-MS/MS. Type of data set: ADME, cell-based, Hepatocyte. To be noted: read-out: Stability.
Data set [16] concerns the target Macrophage metalloelastase (Homo sapiens, UniProt P39900).
A short description of data set [17]: physchem. The settings on record: phosphate buffer, pH 9.
Data set [18] in a line: physchem. To be noted: phosphate buffer, pH 7.4.
The nature of data set [19]: Chemical stability of the compound in acetate buffer at pH 4.0 assessed as residual rate incubated for 2 weeks by HPLC analysis. Type of data set: physicochemical. The settings on record: read-out: Stability.

Chain of Macrophage metalloelastase (P39900 whole entry): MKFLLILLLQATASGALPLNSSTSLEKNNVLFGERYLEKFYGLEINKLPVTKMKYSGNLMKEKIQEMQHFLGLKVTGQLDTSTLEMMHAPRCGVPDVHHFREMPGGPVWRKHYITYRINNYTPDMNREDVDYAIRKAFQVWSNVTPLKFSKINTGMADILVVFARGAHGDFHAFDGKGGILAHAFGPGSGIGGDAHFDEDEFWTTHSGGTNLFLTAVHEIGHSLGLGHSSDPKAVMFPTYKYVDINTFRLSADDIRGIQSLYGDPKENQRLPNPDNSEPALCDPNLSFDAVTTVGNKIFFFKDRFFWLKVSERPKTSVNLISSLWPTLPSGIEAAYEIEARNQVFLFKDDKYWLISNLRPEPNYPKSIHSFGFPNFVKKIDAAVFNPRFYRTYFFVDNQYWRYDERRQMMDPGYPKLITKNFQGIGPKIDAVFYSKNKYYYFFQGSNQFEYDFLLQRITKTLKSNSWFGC
Chain of 72 kDa type IV collagenase (P08253 whole entry): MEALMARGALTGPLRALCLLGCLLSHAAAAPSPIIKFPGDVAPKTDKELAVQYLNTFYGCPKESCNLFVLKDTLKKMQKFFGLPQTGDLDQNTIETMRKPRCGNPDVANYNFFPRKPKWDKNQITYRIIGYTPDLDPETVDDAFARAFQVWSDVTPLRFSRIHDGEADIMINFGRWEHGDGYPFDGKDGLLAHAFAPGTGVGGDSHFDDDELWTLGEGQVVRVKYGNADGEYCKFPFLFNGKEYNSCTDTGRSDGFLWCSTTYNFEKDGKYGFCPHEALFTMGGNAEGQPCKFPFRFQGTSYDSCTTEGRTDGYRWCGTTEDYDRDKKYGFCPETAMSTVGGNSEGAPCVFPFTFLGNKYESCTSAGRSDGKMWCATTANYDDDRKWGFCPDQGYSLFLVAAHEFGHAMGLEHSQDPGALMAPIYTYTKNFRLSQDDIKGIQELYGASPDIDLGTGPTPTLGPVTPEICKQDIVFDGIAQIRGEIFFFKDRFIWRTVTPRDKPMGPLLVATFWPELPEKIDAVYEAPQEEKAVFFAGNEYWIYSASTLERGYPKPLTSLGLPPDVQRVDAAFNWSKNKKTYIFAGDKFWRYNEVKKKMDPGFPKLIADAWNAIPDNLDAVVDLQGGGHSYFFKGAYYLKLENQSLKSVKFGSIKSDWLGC
Chain of MMP-1/MMP-2 (Homo sapiens) (P08253 whole entry, looked up, one chain of several): as the sequence (P08253 whole entry) above
Chain of Neutrophil collagenase (P22894 whole entry): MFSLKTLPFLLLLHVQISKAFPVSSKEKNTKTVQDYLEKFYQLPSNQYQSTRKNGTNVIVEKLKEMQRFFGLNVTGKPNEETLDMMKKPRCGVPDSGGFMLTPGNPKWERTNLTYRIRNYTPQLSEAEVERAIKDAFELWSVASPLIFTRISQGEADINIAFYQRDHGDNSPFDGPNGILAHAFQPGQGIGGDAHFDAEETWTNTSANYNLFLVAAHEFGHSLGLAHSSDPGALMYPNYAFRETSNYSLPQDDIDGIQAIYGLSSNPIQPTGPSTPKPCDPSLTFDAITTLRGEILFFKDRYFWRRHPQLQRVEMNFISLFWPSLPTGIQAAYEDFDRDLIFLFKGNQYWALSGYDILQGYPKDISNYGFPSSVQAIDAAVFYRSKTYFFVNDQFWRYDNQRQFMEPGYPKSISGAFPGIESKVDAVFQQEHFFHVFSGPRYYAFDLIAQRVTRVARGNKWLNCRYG
Chain of Stromelysin-1 (P08254 whole entry): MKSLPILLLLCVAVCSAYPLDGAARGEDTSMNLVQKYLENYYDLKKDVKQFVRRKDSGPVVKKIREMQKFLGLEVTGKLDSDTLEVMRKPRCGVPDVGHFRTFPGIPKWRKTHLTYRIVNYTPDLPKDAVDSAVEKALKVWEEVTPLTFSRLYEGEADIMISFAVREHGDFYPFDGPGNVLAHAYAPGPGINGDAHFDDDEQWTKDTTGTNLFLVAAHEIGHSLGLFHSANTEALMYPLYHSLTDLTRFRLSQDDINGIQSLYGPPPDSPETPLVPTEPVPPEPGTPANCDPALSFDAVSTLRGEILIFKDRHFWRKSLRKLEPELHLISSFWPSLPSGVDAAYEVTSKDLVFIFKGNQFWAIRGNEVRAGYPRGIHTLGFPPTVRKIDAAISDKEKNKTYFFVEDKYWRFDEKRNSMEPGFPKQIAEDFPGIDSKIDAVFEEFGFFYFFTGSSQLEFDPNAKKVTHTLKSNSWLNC
Chain of Matrix metalloproteinase-9 (P14780 whole entry): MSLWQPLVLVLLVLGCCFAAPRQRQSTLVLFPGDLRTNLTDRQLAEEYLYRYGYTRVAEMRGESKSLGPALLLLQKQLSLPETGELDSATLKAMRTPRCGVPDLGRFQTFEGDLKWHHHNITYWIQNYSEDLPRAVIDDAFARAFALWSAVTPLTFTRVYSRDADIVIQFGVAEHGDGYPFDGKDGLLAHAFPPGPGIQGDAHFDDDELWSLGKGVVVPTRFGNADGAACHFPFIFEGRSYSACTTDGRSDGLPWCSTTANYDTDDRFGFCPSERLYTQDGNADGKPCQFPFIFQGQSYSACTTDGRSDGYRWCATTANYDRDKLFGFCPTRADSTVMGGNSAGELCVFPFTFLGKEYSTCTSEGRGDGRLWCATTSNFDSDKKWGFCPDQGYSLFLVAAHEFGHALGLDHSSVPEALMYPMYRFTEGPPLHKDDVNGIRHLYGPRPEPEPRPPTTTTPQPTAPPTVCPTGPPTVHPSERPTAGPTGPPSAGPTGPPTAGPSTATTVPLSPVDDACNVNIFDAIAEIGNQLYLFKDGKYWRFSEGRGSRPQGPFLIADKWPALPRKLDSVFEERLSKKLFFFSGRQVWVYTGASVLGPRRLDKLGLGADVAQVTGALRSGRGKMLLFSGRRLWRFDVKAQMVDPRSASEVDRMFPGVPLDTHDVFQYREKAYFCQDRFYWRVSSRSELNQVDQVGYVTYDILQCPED

Regarding `CC(C)C[C@H](NC(=O)[C@H](CCN)NC(=O)[C@H](CC(=O)O)NC(=O)[C@H](CC(N)=O)NC(=O)CCCNS(=O)(=O)c1ccc(Oc2ccccc2)cc1)C(=O)N(C)[C@@H](CCC(=O)O)C(=O)N1CCC[C@H]1CC(N)=O` ({Benzenesulfonyl(4-OPh)-GABA}-ND[Dab]L[NMeE][β3hP]-NH2), the IC50 (commonly the concentration that gives 50% inhibition) at Stromelysin-1 was greater than 10000 nM; in data set [10], greater than 10000 nM; at Interstitial collagenase it was greater than 10000 nM; against Neutrophil collagenase, 5880 nM; against Matrilysin, greater than 10000 nM; against Collagenase 3, 364 nM. Besides, the results for the half-inhibitory concentration (IC50) in [13] and in data set [14] were 0.068 nM and 526 nM, respectively. Moreover, the Ratio IC50 is greater than 147000 in the data set listed under Homo sapiens [1]; greater than 147000 in data set [3]; 7740 in data set [5]; greater than 147000 in [6]; 7240 in the data set listed under Homo sapiens [8]; greater than 147000 in the data set filed under Homo sapiens [9]. Further, the Ratio IC50 in the data set listed under Homo sapiens [11] turned out to be 86500. For the same compound, in “physchem [2]”, the logD – broadly, the decadic logarithm of the distribution of all forms, ionised or not, between an organic phase and buffer at a given pH – amounted to 1.26. Further, the clearance (commonly the rate of elimination divided by the concentration) in data set [4] is 20.2 mL/min/kg. In data set [7], the Vd is 0.275 L/kg. Moreover, in [12], the half-life (in general, the time needed for the level to fall by half in the phase considered) is 9 min. The remaining at 1 h, 1 µM in data set [15] is 91.7%.
Consider `CNC(=O)[C@H](Cc1c[nH]c2ccccc12)NC(=O)[C@@H](CC(=O)NO)CC(C)C` [ILOMASTAT], for which the IC50 stood at 0.46 nM in data set [16], 5.1 nM against Matrilysin, 0.28 nM against Collagenase 3 and 1.1 nM in data set [14].
Consider `CC[C@H](C)[C@@H](C(=O)N1CCC[C@H]1CC(N)=O)N(C)C(=O)[C@H](CC(C)C)NC(=O)[C@H](C)NC(=O)[C@H](CC(=O)O)NC(=O)[C@H](CC(N)=O)NC(=O)CCCNS(=O)(=O)c1ccc(Oc2ccccc2)cc1` ({Benzenesulfonyl(4-OPh)-GABA}-NDAL[NMeI][β3hP]-NH2), for which the IC50 at Stromelysin-1 was greater than 10000 nM; in data set [10], 181 nM; at Interstitial collagenase, greater than 10000 nM; against Neutrophil collagenase, 261 nM; at Matrilysin, 2100 nM; against Collagenase 3 it was 21 nM. Also, the 50% inhibitory concentration (IC50) in data set [13] is 0.055 nM; in data set [14], 11 nM. Further, the Ratio IC50 is greater than 182000 in the data set filed under Homo sapiens [1]; 3290 in data set [3]; 200 in [5]; 182000 in [6]; 85 in the data set listed under Homo sapiens [8]; 38100 in the data set listed under Homo sapiens [9]. The Ratio IC50 in the data set filed under Homo sapiens [11] came out at 4740. Moreover, in the data set “physchem [2]”, the log distribution coefficient (logD) is 1.53. Also, in data set [4], the clearance is 74.5 mL/min/kg. Moreover, in [7], the Vd amounted to 0.882 L/kg. For the same compound, in data set [12], the half-life came out at 8 min. In [15], the remaining at 1 h, 1 µM stood at 68.4%.
Take `CSCC[C@H](NC(=O)[C@H](CC(C)C)NC(=O)[C@H](C)NC(=O)[C@H](CC(=O)O)NC(=O)[C@H](CC(N)=O)NC(=O)CNS(=O)(=O)c1ccc(-c2ccccc2)cc1)C(=O)N1CCC[C@H]1C(N)=O` ({Benzenesulfonyl(4-Ph)}-GNDALMP-NH2): the concentration for half-maximal inhibition (IC50) is 4170 nM in data set [16], greater than 10000 nM at Collagenase 3 and greater than 100 nM in data set [13].
Consider `CC(C)C[C@H](NC(=O)[C@H](CCN)NC(=O)[C@H](CC(=O)O)NC(=O)[C@H](CC(N)=O)NC(=O)CCCCNC(=O)c1ccc(Oc2ccc(C(N)=O)cc2)cc1)C(=O)N(C)[C@@H](CCC(=O)O)C(=O)N1CCC[C@H]1CC(N)=O` ({Benzoyl(4-OPh(4-CONH2))-Ava}-ND[Dab]L[NMeE][β3hP]-NH2), for which the remaining at 336 h in “physchem [17]” turned out to be 78%; in the data set “physchem [18]”, 89.4%; in data set [19] it was 95.8%. The compound also had a clearance in data set [4] of 12 mL/min/kg. In data set [7], the Vd turned out to be 0.267 L/kg. Besides, the IC50 at Collagenase 3 came to 57 nM; in [13], 0.051 nM. The half-life in [12] was 16 min. Moreover, the remaining at 1 h, 1 µM in data set [15] came to 101%.
For `CC(C)C[C@H](NC(=O)[C@H](CCN)NC(=O)[C@H](CC(=O)O)NC(=O)[C@H](CC(N)=O)NC(=O)CCCNC(=O)c1ccc(Oc2ccc(C(N)=O)cc2)cc1)C(=O)N(C)[C@@H](CCC(=O)O)C(=O)N1CCC[C@H]1CC(N)=O` ({Benzoyl(4-OPh(4-CONH2))-GABA}-ND[Dab]L[NMeE][β3hP]-NH2), the Ratio IC50 in the data set listed under Homo sapiens [8] was 23100. Further, the IC50 came out at 540 nM against Collagenase 3 and 0.17 nM in [13].
For `CSCC[C@H](NC(=O)[C@H](CC(C)C)NC(=O)[C@H](C)NC(=O)[C@H](CC(=O)O)NC(=O)[C@H](CC(N)=O)NC(=O)CCNS(=O)(=O)c1ccc(-c2ccccc2)cc1)C(=O)N1CCC[C@H]1C(N)=O` ({Benzenesulfonyl(4-Ph)-βAla}-NDALMP-NH2) the same measures were 18, 1730 nM and 6.3 nM.
Turning to `CSCC[C@H](NC(=O)[C@H](CC(C)C)NC(=O)[C@H](C)NC(=O)[C@H](CC(=O)O)NC(=O)[C@H](CC(N)=O)NC(=O)CNS(=O)(=O)c1ccc(Oc2ccccc2)cc1)C(=O)N1CCC[C@H]1C(N)=O` ({Benzenesulfonyl(4-OPh)}-GNDALMP-NH2), in the data set filed under Homo sapiens [8], the Ratio IC50 was 13. For the same compound, the figures for the IC50 (in [16]; against Collagenase 3; in data set [13]) were 916 nM, 6470 nM and 69 nM, respectively.
For the compound `CC(C)C[C@H](NC(=O)[C@H](C)NC(=O)[C@H](CC(=O)O)NC(=O)[C@H](CC(N)=O)NC(=O)CCCNS(=O)(=O)c1ccc(Oc2ccccc2)cc1)C(=O)N(C)[C@@H](CC(C)C)C(=O)N1CCC[C@H]1C(N)=O` ({Benzenesulfonyl(4-OPh)-GABA}-NDAL[NMeL]P-NH2), the Ratio IC50 in the data set listed under Homo sapiens [8] stood at 62. Moreover, the IC50 against Collagenase 3 amounted to 9.2 nM; in data set [13], 0.066 nM.
